Converted amounts (≈) assume the structure as drawn.
What was measured:
Assay type in all cases: functional
Staphylococcus aureus [1] = assay: Antibacterial activity against methicillin-resistant Staphylococcus aureus 05-3 after 18 to 24 hrs
Escherichia coli = assay: Antibacterial activity against Escherichia coli ATCC 25922 after 18 to 24 hrs
Staphylococcus aureus [2] = assay: Antibacterial activity against methicillin-sensitive Staphylococcus aureus 04-4 after 18 to 24 hrs
Enterococcus faecalis = assay: Antibacterial activity against Enterococcus faecalis 03-4 after 18 to 24 hrs
Streptococcus pneumoniae = assay: Antibacterial activity against Streptococcus pneumoniae 05-9 after 18 to 24 hrs
Klebsiella pneumoniae = assay: Antibacterial activity against Klebsiella pneumoniae 05-4 after 18 to 24 hrs
Pseudomonas aeruginosa = assay: Antibacterial activity against Pseudomonas aeruginosa […] after 18 to 24 hrs

Structure (SMILES) | MIC (Staphylococcus aureus [1]) [µg/mL] | MIC (Escherichia coli) [µg/mL] | MIC (Staphylococcus aureus [2]) [µg/mL] | MIC (Enterococcus faecalis) [µg/mL] | MIC (Streptococcus pneumoniae) [µg/mL] | MIC (Klebsiella pneumoniae) [µg/mL] | MIC (Pseudomonas aeruginosa) [µg/mL]
CNC1CCN(c2nc3c(cc2F)c(=O)c(C(=O)O)cn3C2CC2)C/C1=N\OC (stereo not drawn) | 0.5 (≈ 1.24 µM) | 1 (≈ 2.48 µM) | < 0.001 | < 0.001 | < 0.001 | 1 (≈ 2.48 µM) | 0.06 (≈ 0.149 µM)
CO/N=C1\CN(c2nc3c(cc2F)c(=O)c(C(=O)O)cn3C2CC2)CCC1NC1CC1 (stereo not drawn) | 2 (≈ 4.66 µM) | 16 (≈ 37.3 µM) | 0.015 (≈ 0.0349 µM) | 0.004 (≈ 0.00931 µM) | 0.004 (≈ 0.00931 µM) | 16 (≈ 37.3 µM) | 1 (≈ 2.33 µM)
CCO/N=C1\CCN(c2nc3c(cc2F)c(=O)c(C(=O)O)cn3C2CC2)CC1NC (stereo not drawn) | 4 (≈ 9.58 µM) | 8 (≈ 19.2 µM) | < 0.001 | < 0.001 | < 0.001 | 16 (≈ 38.3 µM) | 1 (≈ 2.4 µM)
CCCO/N=C1\CCN(c2nc3c(cc2F)c(=O)c(C(=O)O)cn3C2CC2)CC1NC (stereo not drawn) | 16 (≈ 37.1 µM) | 8 (≈ 18.5 µM) | 0.03 (≈ 0.0695 µM) | 0.015 (≈ 0.0348 µM) | 0.015 (≈ 0.0348 µM) | 8 (≈ 18.5 µM) | 2 (≈ 4.64 µM)
CO/N=C1\CN(c2nc3c(cc2F)c(=O)c(C(=O)O)cn3C2CC2)CCC1N (stereo not drawn) | 4 (≈ 10.3 µM) | 1 (≈ 2.57 µM) | 2 (≈ 5.14 µM) | 2 (≈ 5.14 µM) | 2 (≈ 5.14 µM) | 1 (≈ 2.57 µM) | 1 (≈ 2.57 µM)
CNC1CN(c2nc3c(cc2F)c(=O)c(C(=O)O)cn3C2CC2)CC/C1=N\OCc1ccccc1 (stereo not drawn) | 16 (≈ 33.4 µM) | 16 (≈ 33.4 µM) | 0.125 (≈ 0.261 µM) | 0.125 (≈ 0.261 µM) | 0.25 (≈ 0.521 µM) | 16 (≈ 33.4 µM) | 2 (≈ 4.17 µM)
CO/N=C1\CCN(c2nc3c(cc2F)c(=O)c(C(=O)O)cn3C2CC2)CC1NC1CC1 (stereo not drawn) | 2 (≈ 4.66 µM) | 16 (≈ 37.3 µM) | 0.015 (≈ 0.0349 µM) | 0.004 (≈ 0.00931 µM) | 0.004 (≈ 0.00931 µM) | 16 (≈ 37.3 µM) | 8 (≈ 18.6 µM)
CO/N=C1\CCN(c2nc3c(cc2F)c(=O)c(C(=O)O)cn3C2CC2)CC1N(C)C (stereo not drawn) | 1 (≈ 2.4 µM) | 8 (≈ 19.2 µM) | 0.004 (≈ 0.00958 µM) | 0.015 (≈ 0.0359 µM) | 0.015 (≈ 0.0359 µM) | 1 (≈ 2.4 µM) | 0.125 (≈ 0.299 µM)
CCO/N=C1\CCN(c2nc3c(cc2F)c(=O)c(C(=O)O)cn3C2CC2)CC1N(C)C (stereo not drawn) | 1 (≈ 2.32 µM) | 8 (≈ 18.5 µM) | 0.015 (≈ 0.0348 µM) | 0.004 (≈ 0.00927 µM) | 0.002 (≈ 0.00464 µM) | 2 (≈ 4.64 µM) | 1 (≈ 2.32 µM)
CCCO/N=C1\CCN(c2nc3c(cc2F)c(=O)c(C(=O)O)cn3C2CC2)CC1N(C)C (stereo not drawn) | 2 (≈ 4.49 µM) | 16 (≈ 35.9 µM) | 0.5 (≈ 1.12 µM) | 0.25 (≈ 0.561 µM) | 0.125 (≈ 0.281 µM) | 16 (≈ 35.9 µM) | 2 (≈ 4.49 µM)
CNC1CN(c2nc3c(cc2F)c(=O)c(C(=O)O)cn3C2CC2)CC/C1=N\OC (stereo not drawn) | 4 (≈ 9.92 µM) | 4 (≈ 9.92 µM) | < 0.001 | < 0.001 | < 0.001 | 2 (≈ 4.96 µM) | 1 (≈ 2.48 µM)
CNC1CCN(c2nc3c(cc2F)c(=O)c(C(=O)O)cn3C2CC2)C/C1=N\OCc1ccccc1 (stereo not drawn) | 2 (≈ 4.17 µM) | 8 (≈ 16.7 µM) | < 0.001 | < 0.001 | < 0.001 | 4 (≈ 8.34 µM) | 0.5 (≈ 1.04 µM)
CO/N=C1\CCN(c2nc3c(cc2F)c(=O)c(C(=O)O)cn3C2CC2)CC1N (stereo not drawn) | 16 (≈ 41.1 µM) | 8 (≈ 20.5 µM) | 4 (≈ 10.3 µM) | 8 (≈ 20.5 µM) | 4 (≈ 10.3 µM) | 2 (≈ 5.14 µM) | 4 (≈ 10.3 µM)
CN(C)C1CN(c2nc3c(cc2F)c(=O)c(C(=O)O)cn3C2CC2)CC/C1=N\OCc1ccccc1 (stereo not drawn) | 4 (≈ 8.1 µM) | 16 (≈ 32.4 µM) | 0.015 (≈ 0.0304 µM) | 0.06 (≈ 0.122 µM) | 0.015 (≈ 0.0304 µM) | 16 (≈ 32.4 µM) | 2 (≈ 4.05 µM)
CCO/N=C1\CN(c2nc3c(cc2F)c(=O)c(C(=O)O)cn3C2CC2)CCC1NC (stereo not drawn) | 2 (≈ 4.79 µM) | 4 (≈ 9.58 µM) | < 0.001 | < 0.001 | < 0.001 | 1 (≈ 2.4 µM) | 0.06 (≈ 0.144 µM)
CCCO/N=C1\CN(c2nc3c(cc2F)c(=O)c(C(=O)O)cn3C2CC2)CCC1NC (stereo not drawn) | 2 (≈ 4.64 µM) | 4 (≈ 9.27 µM) | 0.06 (≈ 0.139 µM) | 0.06 (≈ 0.139 µM) | 0.03 (≈ 0.0695 µM) | 4 (≈ 9.27 µM) | 0.06 (≈ 0.139 µM)
CO/N=C1\CN(c2nc3c(cc2F)c(=O)c(C(=O)O)cn3C2CC2)CC1CN (stereo not drawn) [GEMIFLOXACIN] | 0.004 (≈ 0.0103 µM) | 0.125 (≈ 0.321 µM) | 0.004 (≈ 0.0103 µM) | 0.004 (≈ 0.0103 µM) | 0.004 (≈ 0.0103 µM) | 0.125 (≈ 0.321 µM) | 0.125 (≈ 0.321 µM)
CC(=O)NC[C@H]1CN(c2ccc(N3CCOCC3)c(F)c2)C(=O)O1 [LINEZOLID] | 1 (≈ 2.96 µM) | – | 0.5 (≈ 1.48 µM) | 0.125 (≈ 0.371 µM) | – | – | –
CN[C@H](CC(C)C)C(=O)N[C@H]1C(=O)N[C@@H](CC(N)=O)C(=O)N[C@H]2C(=O)N[C@H]3C(=O)N[C@H](C(=O)N[C@H](C(=O)O)c4cc(O)cc(O)c4-c4cc3ccc4O)[C@H](O)c3ccc(c(Cl)c3)Oc3cc2cc(c3O[C@@H]2O[C@H](CO)[C@@H](O)[C@H](O)[C@H]2O[C@H]2C[C@](C)(N)[C@H](O)[C@H](C)O2)Oc2ccc(cc2Cl)[C@H]1O [VANCOMYCIN] | – | – | – | – | 0.004 (≈ 0.00276 µM) | – | –

From ChEMBL document CHEMBL1145415, “Synthesis and antibacterial activity of novel fluoroquinolones containing substituted piperidines” (2007)
